Columns and labels:
[1] = target: T1, acetylcholinesterase from Electrophorus electricus (Electrophorus electricus, UniProt O42275); test: AChE inhibition assay (Ellman, spectrophotometric); format: biochemical; details: for IC50: 5 concentrations of standard, linear regression of dose-response curve
T1 construct: purchased Merck (Madrid, Spain)
Excerpt: For the COX-2 assay, a COX-2 Inhibitor Screening Kit from Merck (Madrid, Spain) was purchased. For the analysis of AChE inhibition, acetylcholinesterase from Electrophorus electricus (lyophilized powder, 500 U), Base Trizma® (99.9% purity), chloridric acid (37%), Ellman Reactive (5,5′-dithiobis-(2-nitrobenzoic) acid, DTNB, 98% purity), acetylthiocholine iodide (≥98% purity), and physostigmine salicylate were purchased from Merck (Madrid, Spain). In both assays, a spectrophotometer from BioTek Synergy from Agilent Technologies (Santa Clara, CA, USA) was used.
AChE inhibitory activity was measured using a spectrophotometric assay described by Ellman et al. with slight modifications. First, in a 96-well plate, the AChE enzyme (10 mU mL^−1) (dissolved in 50 mM Tris-HCl buffer, pH 8.0) was incubated with the DTNB (150 μM) and 12 μL aliquots of the corresponding EVOO extracts in a final reaction volume of 250 μL. In addition, the inhibition control (physostigmine), the standards Ol, Lut, and Hyty, and the positive control of AChE activity (substituting the extracts/standards by the solvent of the extracts: ethanol:water (1:1, v/v) were tested. After 15 min of incubation at 30 °C, the substrate (acetylthiocholine iodide 150 μM, ATCh) was added, and AChE activity was determined by measuring the increase in absorbance reading at 405 nm for 15 min at 30 °C in a spectrophotometer (BioTek Synergy, Agilent Technologies, Santa Clara, CA, USA).
The AChE inhibitory activity of the EVOO extracts was expressed as a percentage of inhibition with respect to the positive activity control, indicating the average value obtained by analyzing the 3 extraction replicates obtained from each EVOO extract and analyzing them in duplicate. IC50, the concentration of a standard bioactive compound capable of inhibiting 50% of AChE activity, was determined by measuring 5 different concentrations of the standard compound in the reaction medium and interpolating in the linear regression of the dosis-response curve.

[2] = target: T2, COX-2 (Homo sapiens, UniProt P35354); test: biochemical; details: 5 concentrations of standard, linear regression of dose-response curve
T2 construct: purchased Merck (Madrid, Spain)
T2 sequence (P35354 18-604): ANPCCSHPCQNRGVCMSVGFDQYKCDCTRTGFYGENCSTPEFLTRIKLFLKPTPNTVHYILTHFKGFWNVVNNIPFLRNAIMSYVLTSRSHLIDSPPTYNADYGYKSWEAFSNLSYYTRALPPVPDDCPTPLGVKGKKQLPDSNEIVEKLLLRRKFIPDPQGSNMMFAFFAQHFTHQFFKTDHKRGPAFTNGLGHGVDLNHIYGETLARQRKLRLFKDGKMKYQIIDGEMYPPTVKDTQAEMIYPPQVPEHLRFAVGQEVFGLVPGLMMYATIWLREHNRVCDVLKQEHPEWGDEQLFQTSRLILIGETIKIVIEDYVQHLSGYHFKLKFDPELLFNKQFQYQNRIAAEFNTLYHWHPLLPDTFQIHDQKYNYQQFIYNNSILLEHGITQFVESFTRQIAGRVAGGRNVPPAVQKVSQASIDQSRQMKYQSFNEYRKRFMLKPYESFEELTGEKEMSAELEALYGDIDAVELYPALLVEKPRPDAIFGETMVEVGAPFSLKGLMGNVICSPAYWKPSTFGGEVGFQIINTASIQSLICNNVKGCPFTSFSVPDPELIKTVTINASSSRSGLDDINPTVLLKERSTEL
Method: For the COX-2 assay, a COX-2 Inhibitor Screening Kit from Merck (Madrid, Spain) was purchased. […] In both assays, a spectrophotometer from BioTek Synergy from Agilent Technologies (Santa Clara, CA, USA) was used.
The COX-2 assay was performed using the COX fluorescent inhibitor assay kit with slight modifications and measured spectrophotometrically (BioTek Synergy, Agilent Technologies, Santa Clara, CA, USA). EVOO extracts were diluted (1/200) in ethanol:water (1:1, v/v). Briefly, the assay was carried out in a 96-well plate, in which 10 μL of diluted EVOO extracts and 80 μL of the reaction mix (containing the cofactor, the probe, and the COX-2 enzyme) were added. […] EVOO extracts were analyzed in duplicate.

T1 sequence (O42275 24-633): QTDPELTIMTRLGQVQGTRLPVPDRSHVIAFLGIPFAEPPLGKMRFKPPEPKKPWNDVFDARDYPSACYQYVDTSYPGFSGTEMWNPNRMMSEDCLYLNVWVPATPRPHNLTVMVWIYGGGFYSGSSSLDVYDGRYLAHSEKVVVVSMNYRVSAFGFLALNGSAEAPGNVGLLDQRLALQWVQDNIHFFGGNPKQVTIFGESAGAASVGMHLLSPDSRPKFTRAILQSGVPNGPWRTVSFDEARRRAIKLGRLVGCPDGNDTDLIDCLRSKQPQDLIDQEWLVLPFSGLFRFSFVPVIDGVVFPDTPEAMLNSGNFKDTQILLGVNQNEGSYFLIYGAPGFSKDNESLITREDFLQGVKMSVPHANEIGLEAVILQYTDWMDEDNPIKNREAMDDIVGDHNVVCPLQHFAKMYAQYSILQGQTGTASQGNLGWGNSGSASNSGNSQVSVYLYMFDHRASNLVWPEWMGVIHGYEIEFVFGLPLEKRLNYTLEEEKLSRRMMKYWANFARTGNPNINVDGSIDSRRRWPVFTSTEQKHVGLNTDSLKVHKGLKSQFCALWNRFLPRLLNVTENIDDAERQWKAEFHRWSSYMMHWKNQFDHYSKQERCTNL

SMILES | inhibition at 0.025 µM ([1]; 0.025 µM of physostigmin in 250 μL of medium reaction containing 2.5 mU of AChE) | IC50 [1] | IC50 [2]
CNC(=O)Oc1ccc2c(c1)[C@]1(C)CCN(C)[C@@H]1N2C [Physostigmin, physostigmine salicylate] | 48.5 ± 1.69% |  | 
O=c1cc(-c2ccc(O)c(O)c2)oc2cc(O)cc(O)c12 [Lut, luteolin] |  | 145 µM | 
C/C=C1/[C@H](O[C@@H]2O[C@H](CO)[C@@H](O)[C@H](O)[C@H]2O)OC=C(C(=O)OC)[C@H]1CC(=O)OCCc1ccc(O)c(O)c1 [Ol, oleuropein] |  | 417 µM | 9.65 µM
OCCc1ccc(O)c(O)c1 [Hyty, hydroxytyrosol] |  | 328 µM | 10.8 µM
